Structures can show the parent of a compound that is named as a salt.
Tests used:
Format in all cases: biochemical
Caspase-6 = target: T1, Caspase-6 (Homo sapiens, UniProt P55212); experiment: Caspase-6 inhibitor screening assay (BioVision kit, VEID-AFC); conditions: for inhibition at 10 µM: read-out: % Inhibition at 10 uM Casp6; for inhibition at 100 µM: read-out: % Inhibition at 100 uM Casp6; for IC50: read-out: IC50 Casp6
T1 construct: mixing the compounds with the respective active caspases; purchased BioVision K156-100
T1 sequence (P55212 24-179 limits assumed): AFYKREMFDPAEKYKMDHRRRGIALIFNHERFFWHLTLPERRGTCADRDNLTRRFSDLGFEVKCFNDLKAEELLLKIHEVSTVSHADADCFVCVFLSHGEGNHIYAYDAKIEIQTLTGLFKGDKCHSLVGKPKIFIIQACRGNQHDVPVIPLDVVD
T1 sequence (P55212 194-293 limits assumed): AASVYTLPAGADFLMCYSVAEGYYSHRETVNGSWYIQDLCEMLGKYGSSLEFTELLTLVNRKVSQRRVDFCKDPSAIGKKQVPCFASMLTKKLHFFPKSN
Experimental: (§1) The efficacy of an array of compounds as an inhibitor of the activity of Caspases 1 through 10 were assessed by using the respective Caspase Inhibitor Drug Screening Kits (Caspase-1 Catalog #: K151-100, Caspase-2 Catalog #: K152-100, Caspase-3 Catalog #: K153-100, Caspase-4 Catalog #: K154-100, Caspase-5 Catalog #: K155-100, Caspase-6 Catalog #: K156-100, Caspase-7 Catalog #: K157-100, Caspase-8 Catalog #: K158-100, Caspase-9 Catalog #: K159-100, Caspase-10 Catalog #: K160-100, BioVision) following the instructions of the manufacturer. […] Active caspases cleaved their respective synthetic substrates to release free AFC, which was then quantified by fluorometry.
(§2) Briefly, the compounds were first tested at 2 concentrations (10 uM and 100 uM final) to determine if there is a hit. […] Each condition was tested in duplicates. […] For some samples, a smaller range of concentrations was tested depending on the % Inhibition results at 10 uM and 100 uM. Results were summarized in Tables 2, 3, and 4 herein after. Table 2 represents the IC50 values (uM) of the test compounds as inhibitors of the activity of the various caspases.
(§3) (*) RFU (no inhibitor control)—RFU (compound at a specific concentration)
(§4) RFU (no inhibitor control)

Caspase-9 = target: T2, Caspase-9 (Homo sapiens, UniProt P55211); experiment: Caspase-9 inhibitor screening assay (BioVision kit, LEHD-AFC); conditions: for inhibition at 10 µM: read-out: % Inhibition at 10 uM Casp9; for inhibition at 100 µM: read-out: % Inhibition at 100 uM Casp9; for IC50: read-out: IC50 Casp9
T2 construct: purchased BioVision K159-100
T2 sequence (P55211 1-315 limits assumed): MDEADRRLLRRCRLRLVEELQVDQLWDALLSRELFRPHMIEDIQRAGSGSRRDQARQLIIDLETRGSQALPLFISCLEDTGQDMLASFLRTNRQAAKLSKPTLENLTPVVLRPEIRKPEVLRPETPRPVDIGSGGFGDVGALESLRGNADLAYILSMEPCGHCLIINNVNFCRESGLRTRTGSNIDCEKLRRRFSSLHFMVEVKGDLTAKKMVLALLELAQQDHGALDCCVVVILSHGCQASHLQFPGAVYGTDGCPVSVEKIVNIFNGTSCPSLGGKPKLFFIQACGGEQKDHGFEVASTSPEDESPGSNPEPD
T2 sequence (P55211 331-416 limits assumed): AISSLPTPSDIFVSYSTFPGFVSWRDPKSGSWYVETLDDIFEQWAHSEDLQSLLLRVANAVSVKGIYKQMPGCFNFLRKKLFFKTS
Experimental: as §1, §2, §3, §4

Caspase-5 = target: T3, Caspase-5 (Homo sapiens, UniProt P51878); experiment: Caspase-5 inhibitor screening assay (BioVision kit, WEHD-AFC); conditions: for inhibition at 10 µM: read-out: % Inhibition at 10 uM Casp5; for inhibition at 100 µM: read-out: % Inhibition at 100 uM Casp5; for IC50: read-out: IC50 Casp5
T3 construct: mixing the compounds with the respective active caspases; purchased BioVision K155-100
T3 sequence (P51878 137-327 limits assumed): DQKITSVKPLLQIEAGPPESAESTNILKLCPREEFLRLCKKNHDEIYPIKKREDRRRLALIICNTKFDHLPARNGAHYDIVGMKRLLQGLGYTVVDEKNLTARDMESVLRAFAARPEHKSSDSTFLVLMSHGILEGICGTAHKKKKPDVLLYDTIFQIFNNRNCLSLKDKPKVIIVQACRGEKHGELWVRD
T3 sequence (P51878 347-434 limits assumed): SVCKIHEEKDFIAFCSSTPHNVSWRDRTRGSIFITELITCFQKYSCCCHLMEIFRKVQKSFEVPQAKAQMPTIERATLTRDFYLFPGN
Experimental: as §1, §2, §3, §4

Caspase-1 = target: T4, Caspase-1 (Homo sapiens, UniProt P29466); experiment: Caspase-1 inhibitor screening assay (BioVision kit, YVAD-AFC); conditions: for inhibition at 10 µM: read-out: % Inhibition at 10 uM Casp1; for inhibition at 100 µM: read-out: % Inhibition at 100 uM Casp1; for IC50: read-out: IC50 Casp1
T4 construct: mixing the compounds with the respective active caspases; purchased BioVision K151-100
T4 sequence (P29466 120-297 limits assumed): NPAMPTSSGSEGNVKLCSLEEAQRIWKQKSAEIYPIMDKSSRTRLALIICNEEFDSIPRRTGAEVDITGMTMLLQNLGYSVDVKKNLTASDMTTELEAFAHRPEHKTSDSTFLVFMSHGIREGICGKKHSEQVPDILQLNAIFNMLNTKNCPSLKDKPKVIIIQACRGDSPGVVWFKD
T4 sequence (P29466 317-404 limits assumed): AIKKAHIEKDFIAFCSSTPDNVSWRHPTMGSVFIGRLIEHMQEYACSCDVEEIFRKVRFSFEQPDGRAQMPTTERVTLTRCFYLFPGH
Experimental: as §1, §2, §3, §4

| Structure (SMILES) | inhibition at 10 µM (Caspase-6) [%] | inhibition at 100 µM (Caspase-6) [%] | IC50 (Caspase-6) [µM] | inhibition at 10 µM (Caspase-9) [%] | inhibition at 100 µM (Caspase-9) [%] | IC50 (Caspase-9) [µM] | inhibition at 10 µM (Caspase-5) [%] | inhibition at 100 µM (Caspase-5) [%] | IC50 (Caspase-5) [µM] | inhibition at 10 µM (Caspase-1) [%] | inhibition at 100 µM (Caspase-1) [%] | IC50 (Caspase-1) [µM] |
| --- | --- | --- | --- | --- | --- | --- | --- | --- | --- | --- | --- | --- |
| CC(C)(C)[C@H](NC(=O)c1ccc2ncccc2n1)C(=O)N1CCCC1C(=O)N[C@H](/C=C/S(C)(=O)=O)CC(=O)O (stereo in doubt) [Compound 8, (1,5-Naphthyridine-2-carbonyl)-t-Leu-Pro-Asp methyl vinyl sulfone] | 2 | 1 | > 100 | 24 | 73 | 47.3 | 65 | 97 | 5.9 | 91 | 100 | 0.88 |
| CS(=O)(=O)/C=C/[C@H](CC(=O)O)NC(=O)[C@H](CCC(=O)O)NC(=O)c1ccc2ccccc2n1 [Compound 18, 2-Quinoline carbonyl-Glu-Asp methyl vinyl sulfone] | 0 | 8 | > 100 | 0 | 9 | > 100 | 0 | 1 | > 100 | 1 | 1 | > 100 |
| CC(C)[C@H](NC(=O)OCc1ccccc1)C(=O)N[C@H](/C=C/S(C)(=O)=O)CC(=O)O [Compound 3, Z-Val-Asp methyl vinyl sulfone] | 0 | 0 | > 100 | 0 | 17 | > 100 | 0 | 0 | > 100 | 18 | 26 | > 100 |
| CC(C)(C)[C@H](NC(=O)c1ccc2ccccc2n1)C(=O)N1CC[C@@H]1C(=O)N[C@H](/C=C/S(C)(=O)=O)CC(=O)O [Compound 20, 2-Quinoline carbonyl-t-Leu-(Azetidine-2-carbonyl)-Asp methyl vinyl sulfone] | 0 | 0 | > 100 | 8 | 44 | > 100 | 55 | 96 | 8.39 | 81 | 99 | 1.4 |
| CC(C)[C@H](NC(=O)[C@@H](N)Cc1ccc(O)cc1)C(=O)N[C@@H](C)C(=O)N[C@H](/C=C/S(C)(=O)=O)CC(=O)O [Compound 42, Tyr-Val-Ala-Asp methyl vinyl sulfone] | 6 | 4 | > 100 | 0 | 26 | > 100 | 43 | 93 | 12.4 | 26 | 72 | 33.8 |
| CC(C)[C@H](NC(=O)c1ccc2ccccc2n1)C(=O)N[C@H](/C=C/S(C)(=O)=O)CC(=O)O [Compound 16, 2-Quinoline carbonyl-Val-Asp methyl vinyl sulfone] | 0 | 0 | > 100 | 0 | 0 | > 100 | 0 | 10 | > 100 | 0 | 0 | > 100 |

Further lines, results first:

| inhibition at 10 µM (Caspase-6) [%] | inhibition at 100 µM (Caspase-6) [%] | IC50 (Caspase-6) [µM] | inhibition at 10 µM (Caspase-9) [%] | inhibition at 100 µM (Caspase-9) [%] | IC50 (Caspase-9) [µM] | inhibition at 10 µM (Caspase-5) [%] | inhibition at 100 µM (Caspase-5) [%] | IC50 (Caspase-5) [µM] | inhibition at 10 µM (Caspase-1) [%] | inhibition at 100 µM (Caspase-1) [%] | IC50 (Caspase-1) [µM] | Structure (SMILES) |
| --- | --- | --- | --- | --- | --- | --- | --- | --- | --- | --- | --- | --- |
| 0 | 2 | > 100 | 48 | 92 | 10.8 | 8 | 50 | ~100 | 55 | 92 | 8 | CS(=O)(=O)/C=C/[C@H](CC(=O)O)NC(=O)[C@H]1CCCN1C(=O)[C@@H](NC(=O)[C@H](CC(=O)O)NC(=O)OCc1ccccc1)c1ccccc1 [Compound 30, Z-Asp-Phenylglycine-Pro-Asp-methyl vinyl sulfone] |
| 1 | 0 | > 100 | 2 | 0 | > 100 | 11 | 0 | > 100 | 0 | 0 | > 100 | CS(=O)(=O)/C=C/[C@H](CC(=O)O)NC(=O)[C@@H](N)CCC(=O)O [Compound 22, Glu-Asp methylsulfone] |
| 1 | 10 | > 100 | 1 | 10 | > 100 | 3 | 7 | > 100 | 2 | 2 | > 100 | CC(C)(C)OC(=O)CC[C@H](NC(=O)OC(C)(C)C)C(=O)N[C@H](/C=C/S(C)(=O)=O)CC(=O)OC(C)(C)C [Compound 21, Boc-Glu(O—tBu)-Asp (O—tBu)-methyl vinyl sulfone] |
| 0 | 0 | > 100 | 0 | 0 | > 100 | 0 | 0 | > 100 | 0 | 0 | > 100 | CCOC(=O)/C=C/[C@@H](N)CC(=O)O [Compound 44, Asp ethyl vinyl ester tosyl salt] |
| 0 | 5 | > 100 | 0 | 6 | > 100 | 0 | 0 | > 100 | 0 | 0 | > 100 | CC(C)[C@H](NC(=O)[C@@H](NC(=O)[C@H](CC(=O)O)NC(=O)OCc1ccccc1)c1ccccc1)C(=O)N[C@H](/C=C/S(C)(=O)=O)CCC(=O)O [Compound 84, Z-Asp-Phg-Val-Glu methyl vinyl sulfone] |
| 0 | 19 | > 100 | 39 | 87 | 16.9 | 14 | 50 | 25.4 | 75 | 94 | 3.8 | CC(C)[C@H](NC(=O)[C@H](Cc1cn(C)c2ccccc12)NC(=O)[C@H](CC(=O)O)NC(=O)OCc1ccccc1)C(=O)N[C@H](/C=C/S(C)(=O)=O)CC(=O)O [Compound 36, Z-Asp-Trp(N-Me)-Val-Asp-methyl vinyl sulfone] |
